The nature of data set [1]: Time-dependent and concentration-dependent fluorescence sensing of H2S in PBS buffer. To be noted: AL1 20 μM, Na2S 50 μM, PBS buffer pH 7.4, room temperature. As to the method: FIG. 3. (A) Time-dependent fluorescence emission (λex: 330 nm) of AL1 (20 μM) in the presence of Na2S (50 μM). (B) Fluorescence intensity (λex: 330 nm) of AL1 ([…]) in response to increasing Na2S concentrations.
The efficiency of AL1 in sensing H2S in PBS buffer (pH 7.4) and at room temperature was also assessed (FIG. 3A). Under these conditions, the resulting fluorescence intensity reached a maximum in less than two minutes, highlighting that our designed probe is not only selective but also highly reactive towards H2S—a necessary feature for detecting analytes which are short-lived. To determine if AL1 could also be used to detect H2S quantitatively in buffer, the resulting fluorescence was measured in response to a series of different concentrations of H2S (FIG. 3B). Indeed, the ensuing fluorescence intensity increased in a linear fashion in the range of 0-20 μM H2S and with a detection limit of 0.05 μM.

A short description of data set [2]: Stability in fetal bovine plasma (fluorescence). The following applies: probe 20 μM. It is filed as in vitro ADME. As to the method: (§1) FIG. 2. Fluorescence response (λex: 330 nm) of probes (20 μM) at room temperature and under varying conditions: (A and B): (1): 24 hour incubation period in PBS buffer alone; (2): 24 hour incubation period in PBS buffer followed by the addition of Na2S (50 μM). (C and D): (1): 10 min incubation period in fetal bovine plasma alone; (2): 10 min incubation period in fetal bovine plasma and in the presence of Na2S (50 μM). AL1: 2A and 2C and AL3: 2B and 2D.
(§2) To further establish the increased durability of AL1 relative to AL3, we tested the stability of both compounds in PBS buffer over a 24 h incubation period (FIGS. 2A and 2B). […] The stability of AL1 and AL3 was also assessed in fetal bovine plasma (FIGS. 2C and 2D).

A short description of data set [3]: Stability in PBS buffer over a 24 h incubation period (fluorescence). It is filed as physicochemical. The procedure: as §1, §2
Data set [4] can be described thus: Selectivity of fluorescence turn-on towards H2S versus biological thiols and nucleophiles in PBS buffer. The following applies: probe 20 μM. The procedure:
FIG. 1. Fluorescence response (λex: 330 nm) of probes (20 μM) in PBS buffer (pH 7.4), at room temperature, and in the presence of various biological thiols and nucleophiles: (1) PBS buffer alone; (2) 50 μM Na2S; (3) 100 μM cysteine; (4) 1 mM glutathione; (5) 100 μM serine; (6) 100 μM lysine; (7) 1 mM glutathione+50 μM Na2S. (A): Probe AL1 and (B): Probe AL3.
To assess our hypothesis, the selectivity of our design towards H2S was first assessed by incubating AL1 (20 μM) with various biological thiols and nucleophiles in PBS buffer (FIG. 1A). After reacting for 10 min at room temperature, the resulting turn-on response was gauged using fluorescence spectroscopy. The results from this assay were indeed stunning. In the presence of 50 μM Na2S (an H2S equivalent at physiological pH) a greater than 100-fold increase in relative fluorescence intensity was observed. […] Moreover, this assay confirmed that AL1 is not consumed by the presence of other thiols and that its reactivity towards H2S is retained in their presence (FIG. 1A, Column 7). To confirm that the gem-dimethyl group affords enhanced differentiation, we also generated AL3 which lacks the steric shield alpha to the ester carbonyl.

Another data set concerns HeLa cells. Put plainly: Confocal fluorescence imaging of H2S in live HeLa cells. It is filed as cell-based. The following applies: for fluorescence in cells upon treatment with Na2S / fluorescence in cells, probe alone (no Na2S): HeLa, AL2 10 μM; for fluorescence in cells upon treatment with Na2S: 50 μM Na2S, AL1 12.5 μM, ex 405 nm, em 452 nm; for fluorescence in cells, probe alone (no Na2S): AL1 12.5 μM 45 min then washed. The procedure: FIG. 4. (A) Visualization of H2S in live HeLa cells with AL1 (12.5 μm). Imaging: ex: 405 nm, em: 452 nm. (a and b): No Na2S added (control); (c and d): Addition of Na2S (50 μm). Scale bar is set to 20 μm. (B) Visualization of H2S in live HeLa cells with AL4 (5 μm). Imaging: ex: 561 nm, em: 587 nm. (e and f): No Na2S added (control); g and h: Addition of Na2S (25 μM). Scale bar is set to 20 μm.
FIG. 5. Fluorescence images of live HeLa cells treated with AL2 (10 μM); (a and b): No Na2S (control); (c and d): Addition of Na2S (50 μM); (e and f): Fluorescence images of HeLa cells pretreated with biotin (2 mM) followed by treatments with AL2 (10 μM) and Na2S (50 μM). Imaging: ex: 405 nm, em: 452 nm. Scale bar is set to 20 μm.
Probe AL1 was also shown to be useful in imaging H2S in live cells using confocal microscopy. Cultured HeLa cells were incubated with AL1 (12.5 μM) for 45 min and then washed to remove any excess probe. […] Probe AL4 utilizes resorufin as its latent fluorescent reporter which has the added benefit of longer excitation and emission wavelengths, further boosting its potential in tissue imaging applications.
(§3) As a proof of concept we generated AL2, a cancer cell-specific H2S probe, by coupling biotin to its amine handle (Scheme 1). W. X. Ren et al, Chem. Commun. 2015, 51, 10403-10418; X. Song et al, RSC Adv. 2017, 7, 15817-15822; M. H. Lee et al, Chem. Soc. Rev. 2018, 47, 28-52. Fluorescence imaging experiments were then conducted using both a biotin positive (HeLa) and biotin negative (HEK293) cell line to confirm its selective targeting and delivery. […] To confirm that AL2 was targeting biotin cell surface receptors, in a separate experiment, HeLa cells were pre-treated with biotin prior to the addition of AL2. […] The selectivity of AL2 was further established using HEK293 (noncancerous human embryonic kidney) cells.

The subject of a further data set is HEK293 cells. Put plainly: Fluorescence imaging in live HEK293 cells (biotin negative). It is filed as cell-based, human. To be noted: AL2 10 μM, with or without Na2S 50 μM. The procedure:
FIG. 6. Fluorescence images of live HEK293 cells. (a and b): Treatment with AL2 (10 μM) alone; (c and d): Treatment with AL2 (10 μM) followed by treatment with Na2S (50 μM). Imaging: ex: 405 nm, em: 452 nm. Scale bar is set to 20 μm.
as §3

With `CC(=O)NCCS[Se]CC(C)(C)C(=O)Oc1ccc2ccc(=O)oc2c1` [AL1], the “time for fluorescence intensity to reach a maximum” value in data set [1] is “less than two”. Besides, the “turn-on response in fetal bovine plasma when Na2S present” value in data set [2] (10 min, Na2S 50 μM) is on record as “marked turn-on response”. Moreover, the “stability in fetal bovine plasma (fluorescence in the absence of Na2S)” value in data set [2] (10 min incubation, room temperature) is listed as “remarkable stability”. The “fluorescence on addition of Na2S after prolonged exposure to buffer” value in data set [3] (24 h in PBS buffer, then Na2S 50 μM) is “impressive turn-on fluorescence”. Moreover, the “stability in PBS buffer alone” value in data set [3] (probe 20 μM, 24 h incubation, room temperature) is “superb stability”. In data set [4] (50 μM Na2S, PBS buffer pH 7.4, 10 min, room temperature, λex 330 nm), the “increase in relative fluorescence intensity” value is listed as “greater than 100 fold”. In addition, the “reactivity towards H2S in the presence of other thiols” value in data set [4] (1 mM glutathione + 50 μM Na2S, PBS pH 7.4 (FIG. 1A, Column 7)) is given as “retained”. In addition, the “selectivity: fluorescence in the presence of other biologically relevant thiols and nucleophiles” value in data set [4] (100 μM cysteine, 1 mM glutathione, 100 μM serine, 100 μM lysine, PBS pH 7.4, 10 min, room temperature) is recorded as “no increase in fluorescence was detected”. Also, in the data set with HeLa cells, the “fluorescence in cells upon treatment with Na2S” value is reported as “strong blue fluorescence” and the “fluorescence in cells, probe alone (no Na2S)” value was “did not observe any fluorescent cells”.
For `CC(C)(C[Se]SCCNC(=O)CCCC[C@@H]1SC[C@@H]2NC(=O)N[C@@H]21)C(=O)Oc1ccc2ccc(=O)oc2c1` [AL2], the “fluorescence in cells, even upon addition of exogenous Na2S” value in the data set on HEK293 cells is listed as “negligible fluorescence”. Also, the “fluorescence in cells pre-treated with biotin, after Na2S” value in the data set on HeLa cells (HeLa pretreated with biotin 2 mM, then AL2 10 μM and Na2S 50 μM) is recorded as “did not produce any fluorescence”. Besides, in the data set on HeLa cells, the “fluorescence in cells upon treatment with Na2S” value is “strong blue fluorescent signal” and the “fluorescence in cells, probe alone (no Na2S)” value was “minimal fluorescence”.

Values taken from patent US11931428B2, “Selective hydrogen sulfide probe and uses thereof” (Wake Forest University Health Sciences, priority 2019, dated 2024).
